The source made the active and inactive calls. The calls are words filed in the database; no cut-off is given here.
How the values were obtained:
Bel7402/5-FU = experiment: Antiproliferative activity against human BEL-7402/5-FU cell; type: functional, cell-based
[1] = molecular target: Lysine-specific histone demethylase 1A (Homo sapiens, UniProt O60341); experiment: Inhibition of LSD1 (unknown origin)
[2] = molecular target: T1, Tyrosine-protein kinase JAK3 (Homo sapiens, UniProt P52333); experiment: biochemical; type: cell-based, Sf9
T1 sequence (P52333 whole entry): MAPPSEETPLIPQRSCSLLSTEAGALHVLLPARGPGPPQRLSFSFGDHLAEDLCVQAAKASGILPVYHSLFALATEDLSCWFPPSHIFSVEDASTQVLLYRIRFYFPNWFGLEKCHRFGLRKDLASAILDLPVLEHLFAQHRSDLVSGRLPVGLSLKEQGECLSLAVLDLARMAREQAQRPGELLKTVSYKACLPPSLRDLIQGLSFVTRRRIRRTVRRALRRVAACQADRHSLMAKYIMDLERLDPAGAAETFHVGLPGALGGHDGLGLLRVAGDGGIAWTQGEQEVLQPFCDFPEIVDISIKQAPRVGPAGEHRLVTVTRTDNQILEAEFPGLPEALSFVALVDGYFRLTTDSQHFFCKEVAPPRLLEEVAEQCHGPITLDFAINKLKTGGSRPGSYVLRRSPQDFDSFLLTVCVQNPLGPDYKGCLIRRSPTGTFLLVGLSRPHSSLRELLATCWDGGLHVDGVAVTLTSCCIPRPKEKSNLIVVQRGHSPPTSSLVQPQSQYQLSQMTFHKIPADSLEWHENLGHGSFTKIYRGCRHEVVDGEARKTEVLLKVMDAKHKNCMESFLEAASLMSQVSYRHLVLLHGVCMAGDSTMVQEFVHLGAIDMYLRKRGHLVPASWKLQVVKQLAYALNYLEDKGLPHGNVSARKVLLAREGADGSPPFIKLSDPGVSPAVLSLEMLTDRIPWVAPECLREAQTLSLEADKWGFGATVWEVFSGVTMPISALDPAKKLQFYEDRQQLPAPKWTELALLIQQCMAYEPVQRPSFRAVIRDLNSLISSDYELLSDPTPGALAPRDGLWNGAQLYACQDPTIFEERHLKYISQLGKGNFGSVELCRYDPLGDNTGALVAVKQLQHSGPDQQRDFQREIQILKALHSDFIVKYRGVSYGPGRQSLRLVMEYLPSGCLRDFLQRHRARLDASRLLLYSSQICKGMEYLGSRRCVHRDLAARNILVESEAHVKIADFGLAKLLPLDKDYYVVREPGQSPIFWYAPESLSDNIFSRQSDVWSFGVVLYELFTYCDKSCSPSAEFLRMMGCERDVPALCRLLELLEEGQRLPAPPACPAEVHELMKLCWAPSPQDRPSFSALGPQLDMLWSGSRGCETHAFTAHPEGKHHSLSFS
Description: Inhibition of recombinant human N-terminal GST-tagged JAK3 (781 to end residues) expressed in baculovirus infected Sf9 cells using poly (Glu,Tyr) 4:1 as substrate incubated for 60 mins in presence of ATP by ADP-Glo kinase assay

MGC-803 [3] = experiment: Induction of apoptosis in human MGC-803 cells assessed as viable cells at 1 uM by Annexin V-FITC/PI staining based flow cytometric analysis (reference value: 94.4%); type: functional; conditions: read-out: Activity
MGC-803 [4] = experiment: Induction of apoptosis in human MGC-803 cells assessed as viable cells at 0.5 uM by Annexin V-FITC/PI staining based flow cytometric analysis (reference value: 94.4%); type: functional; conditions: read-out: Activity
MGC-803 [5] = experiment: Induction of reactive oxygen species generation in human MGC-803 cells by DCFH-DA staining fluorescence assay; type: functional, cell-based; conditions: dose 0.5-2 µM
MGC-803 [6] = experiment: Induction of apoptosis in human MGC-803 cells assessed as late apoptotic cells at 2 uM by Annexin V-FITC/PI staining based flow cytometric analysis (reference value: 2.14 %); type: functional
ECa-109 cell line = experiment: Antiproliferative activity against human Eca-109 cells measured after 72 hrs by MTT assay; type: functional, cell-based; conditions: ECa-109, 72 h
PC-3 = experiment: Antiproliferative activity against human PC-3 cells measured after 72 hrs by MTT assay; type: functional, cell-based; conditions: PC-3, 72 h
MGC-803 [7] = experiment: Antiproliferative activity against human MGC-803 cells assessed as decrease in number of colonies by crystal violet staining based assay; type: functional, cell-based; conditions: dose 0.5-2 µM
MGC-803 [8] = experiment: Induction of cell cycle arrest in human MGC-803 cells assessed as accumulation of cells at G0/G1 phase at 0.5 uM incubated for 24 hrs by PI staining based flow cytometry analysis (reference value: 56.68 %); type: functional
MGC-803 [9] = experiment: Induction of cell cycle arrest in human MGC-803 cells assessed as accumulation of cells at G0/G1 phase at 1 uM incubated for 24 hrs by PI staining based flow cytometry analysis (reference value: 56.68 %); type: functional
MGC-803 [10] = experiment: Induction of cell cycle arrest in human MGC-803 cells assessed as accumulation of cells at G0/G1 phase at 2 uM incubated for 24 hrs by PI staining based flow cytometry analysis (reference value: 56.68 %); type: functional
MGC-803 [11] = experiment: Induction of cell cycle arrest in human MGC-803 cells assessed as accumulation of cells at S phase at 0.5 uM incubated for 24 hrs by PI staining based flow cytometry analysis (reference value: 29.00 %); type: functional
MGC-803 [12] = experiment: Induction of cell cycle arrest in human MGC-803 cells assessed as accumulation of cells at S phase at 1 uM incubated for 24 hrs by PI staining based flow cytometry analysis (reference value: 29.00 %); type: functional
MGC-803 [13] = experiment: Induction of cell cycle arrest in human MGC-803 cells assessed as accumulation of cells at S phase at 2 uM incubated for 24 hrs by PI staining based flow cytometry analysis (reference value: 29.00 %); type: functional
MGC-803 [14] = experiment: Induction of cell cycle arrest in human MGC-803 cells assessed as accumulation of cells at G2/M phase at 0.5 uM incubated for 24 hrs by PI staining based flow cytometry analysis (reference value: 14.32 %); type: functional
MGC-803 [15] = experiment: Induction of cell cycle arrest in human MGC-803 cells assessed as accumulation of cells at G2/M phase at 1 uM incubated for 24 hrs by PI staining based flow cytometry analysis (reference value: 14.32 %); type: functional
MGC-803 [16] = experiment: Induction of cell cycle arrest in human MGC-803 cells assessed as accumulation of cells at G2/M phase at 2 uM incubated for 24 hrs by PI staining based flow cytometry analysis (reference value: 14.32 %); type: functional
MGC-803 [17] = experiment: Induction of morphological changes in human MGC-803 cells assessed as appearance of dense and concentrated granules at 0.5 to 2 uM for 48 hrs by DAPI staining based fluorescence microscopy; type: functional, cell-based; conditions: dose 0.5-2 µM
MGC-803 [18] = experiment: Induction of apoptosis in human MGC-803 cells assessed as viable cells at 2 uM by Annexin V-FITC/PI staining based flow cytometric analysis (reference value: 94.4%); type: functional; conditions: read-out: Activity
MGC-803 [19] = experiment: Induction of apoptosis in human MGC-803 cells assessed as early apoptotic cells at 0.5 uM by Annexin V-FITC/PI staining based flow cytometric analysis (reference value: 2.79%); type: functional
MGC-803 [20] = experiment: Induction of apoptosis in human MGC-803 cells assessed as early apoptotic cells at 1 uM by Annexin V-FITC/PI staining based flow cytometric analysis (reference value: 2.79%); type: functional
MGC-803 [21] = experiment: Induction of apoptosis in human MGC-803 cells assessed as early apoptotic cells at 2 uM by Annexin V-FITC/PI staining based flow cytometric analysis (reference value: 2.79%); type: functional
MGC-803 [22] = experiment: Induction of apoptosis in human MGC-803 cells assessed as late apoptotic cells at 0.5 uM by Annexin V-FITC/PI staining based flow cytometric analysis (reference value: 2.14 %); type: functional
MGC-803 [23] = experiment: Induction of apoptosis in human MGC-803 cells assessed as late apoptotic cells at 1 uM by Annexin V-FITC/PI staining based flow cytometric analysis (reference value: 2.14 %); type: functional
MGC-803 [24] = experiment: Induction of apoptosis in human MGC-803 cells assessed as necrotic cells at 0.5 uM by Annexin V-FITC/PI staining based flow cytometric analysis (reference value: 0.69%); type: functional
MGC-803 [25] = experiment: Induction of apoptosis in human MGC-803 cells assessed as necrotic cells at 1 uM by Annexin V-FITC/PI staining based flow cytometric analysis (reference value: 0.69%); type: functional
MGC-803 [26] = experiment: Induction of apoptosis in human MGC-803 cells assessed as necrotic cells at 2 uM by Annexin V-FITC/PI staining based flow cytometric analysis (reference value: 0.69%); type: functional
[27] = Induction of NO release in phosphate buffer containing excess L-cysteine measured up to 14 hrs by Griess assay; type: functional
MGC-803 [28] = experiment: Antiproliferative activity against human MGC-803 assessed as cell survival by MTT assay relative to control; type: functional
MGC-803 [29] = experiment: Antiproliferative activity against human MGC-803 assessed as reduction in cell survival measured after 24 hrs in presence of NO scavenger hemoglobin at 1 to 20 uM by MTT assay; type: functional, cell-based
MGC-803 [30] = experiment: Antiproliferative activity against human MGC-803 cells assessed as reduction in colony area at 0.5 to 2 uM by crystal violet staining based assay; type: functional, cell-based; conditions: dose 0.5-2 µM
MGC-803 [31] = experiment: Induction of morphological changes in human MGC-803 cells assessed as nuclear shrinkage at 0.5 to 2 uM incubated for 48 hrs by DAPI staining based fluorescence microscopy; type: functional, cell-based; conditions: dose 0.5-2 µM
MGC-803 [32] = experiment: Induction of morphological changes in human MGC-803 cells assessed as nuclear condensation at 0.5 to 2 uM incubated for 48 hrs by DAPI staining based fluorescence microscopy; type: functional, cell-based; conditions: dose 0.5-2 µM
MGC-803 [33] = experiment: Induction of morphological changes in human MGC-803 cells assessed as appearance of broken cell at 0.5 to 2 uM incubated for 48 hrs by DAPI staining based fluorescence microscopy; type: functional; conditions: dose 0.5-2 µM
MGC-803 [34] = experiment: Induction of apoptosis in human MGC-803 cells by Annexin V-FITC/PI staining based flow cytometric analysis; type: functional, cell-based; conditions: dose 0.5-2 µM
MGC-803 [35] = experiment: cells; conditions: Homo sapiens, MGC-803, 72 h
Description: Antiproliferative activity against human MGC-803 cells measured after 72 hrs by MTT assay

MCF7 = experiment: cells; conditions: Homo sapiens, MCF7, 72 h
Description: Antiproliferative activity against human MCF7 cells measured after 72 hrs by MTT assay

SMILES: O=C1C(NCCOc2no[n+]([O-])c2S(=O)(=O)c2ccccc2)=CC(=O)c2ncccc21
- IC50 (Bel7402/5-FU): 420 nM

SMILES: COc1ccc(/C=N/NC2NC(SCC(C)C)=NC(c3ccc(OC)cc3)=C2C#N)cc1 (centres undefined)
- IC50 [1]: 956 nM

SMILES: N#Cc1ccccc1Nc1nc(Nc2ccc(NC(=O)CN3CCOCC3)cc2)ncc1Cl
- IC50 [2]: 20.7 nM

SMILES: COc1cc(Nc2nc(SCC(=O)N3CCN(CCOc4no[n+]([O-])c4S(=O)(=O)c4ccccc4)CC3)nc(-c3ccccc3)c2C#N)cc(OC)c1OC
- viability at 1 µM (MGC-803 [3]): 65.1%
- viability at 0.5 µM (MGC-803 [4]): 75.2%
- Activity (MGC-803 [5]): Dose-Dependent Effect
- Activity (MGC-803 [6]): 28.7%
- IC50 (ECa-109 cell line): 2210 nM
- IC50 (PC-3): 1140 nM
- Activity (MGC-803 [7]): Dose-Dependent Effect
- Activity (MGC-803 [8]): 60.59%
- Activity (MGC-803 [9]): 65.87%
- Activity (MGC-803 [10]): 74.33%
- Activity (MGC-803 [11]): 24.83%
- Activity (MGC-803 [12]): 19.71%
- Activity (MGC-803 [13]): 15.27%
- Activity (MGC-803 [14]): 14.58%
- Activity (MGC-803 [15]): 14.43%
- Activity (MGC-803 [16]): 10.4%
- Activity (MGC-803 [17]): Active
- viability at 2 µM (MGC-803 [18]): 58.3%
- Activity (MGC-803 [19]): 6.5%
- Activity (MGC-803 [20]): 7.71%
- Activity (MGC-803 [21]): 10.4%
- Activity (MGC-803 [22]): 15.1%
- Activity (MGC-803 [23]): 24%
- Activity (MGC-803 [24]): 3.22%
- Activity (MGC-803 [25]): 3.21%
- Activity (MGC-803 [26]): 2.69%
- Activity [27]: Active
- Activity (MGC-803 [28]): 20%
- Activity (MGC-803 [29]): inactive
- Activity (MGC-803 [30]): Active
- Activity (MGC-803 [31]): Active
- Activity (MGC-803 [32]): Active
- Activity (MGC-803 [33]): Active
- Activity (MGC-803 [34]): Dose-Dependent Effect
- IC50 (MGC-803 [35]): 950 nM
- IC50 (MCF7): 2030 nM

Reference: ChEMBL document CHEMBL5365407, “Design, synthesis and biological evaluation of nitric oxide-releasing 5-cyano-6-phenyl-2, 4-disubstituted pyrimidine derivatives” (Bioorg Med Chem Lett, 2023)
